Our source for the inhibition and IC50 values is patent US12637425B2, “Compounds and formulations for treating ophthalmic diseases” (Visus Therapeutics, Inc., priority 2020, dated 2026).

A value given as a limit tells only on which side of the number the result lay.

The target in this assay is T1, Recombinant cryAB(R120G) protein (Homo sapiens, UniProt P02511, R120G).
T1 sequence (P02511 1-175 R120G): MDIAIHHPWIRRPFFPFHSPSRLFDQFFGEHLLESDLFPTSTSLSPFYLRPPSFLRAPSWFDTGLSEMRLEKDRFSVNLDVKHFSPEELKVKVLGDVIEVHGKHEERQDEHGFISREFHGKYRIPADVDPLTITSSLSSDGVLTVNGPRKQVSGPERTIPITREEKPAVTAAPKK
In words: Kinetic turbidity aggregation assay of recombinant cryAB(R120G). The class given is biochemical. The note with it: for inhibition at 25 µM: 25 μM compound, read-out: % Inhibition of Protein Aggregation, 25 μM cmpd; for inhibition at 25 µM / inhibition at 100 µM / inhibition at 400 µM: 15 μM cryAB(R120G), 42° C., absorbance at 550 nm; for inhibition at 100 µM: 100 μM compound, read-out: % Inhibition of Protein Aggregation, 100 μM cmpd; for inhibition at 400 µM: 400 μM compound, read-out: % Inhibition of Protein Aggregation, 400 μM cmpd; for IC50: inhibition of cryAB(R120G) protein aggregation. The gist of the method:
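Recombinant human cryAB R120G at 15 μM final in 50 mM Tris, 100 mM NaCl, 5 mM DTT, 0.01% Triton X-100, 0.05% PEG-8000 with 4% DMSO. Compounds added from 2-fold serial DMSO dilutions, run in quadruplicate; aggregation followed kinetically by turbidity.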

The inhibition is the change of the read-out against control, counted positive when it falls. In the case of `Cn1cc([C@@H](CNS(=O)(=O)c2ccc3cc[nH]c3c2)N2CC[C@H](c3ccccc3)C2)c2ccccc21` [Compound 60, N-((S)-2-(1-methyl-1H-indol-3-yl)-2-((R)-3-phenylpyrrolidin-1-yl)ethyl)-1H-indole-6-sulfonamide], the inhibition at 25 µM was 57% and the inhibition at 100 µM was 94.9%.
Take `CN1CCN(S(=O)(=O)c2ccc3cc[nH]c3c2)CC1c1cn(C)c2ccccc12` (stereo not drawn) [Compound 4, 3-(4-((1H-indol-6-yl)sulfonyl)-1-methylpiperazin-2-yl)-1-methyl-1H-indole]: the inhibition at 25 µM is 66.7%, the inhibition at 100 µM came to 62.8% and the inhibition at 400 µM stood at 91.8%.
In the case of `Cn1cc(C(CNS(=O)(=O)c2ccc3[nH]ccc3c2)N2CCCC2)c2ccccc21` (stereo not drawn) [Compound 26, N-(2-(1-methyl-1H-indol-3-yl)-2-(pyrrolidin-1-yl)ethyl)-1H-indole-5-sulfonamide], the inhibition at 25 µM was -4% and the inhibition at 100 µM amounted to 90.6%.
Regarding `CN(C)C(CNS(=O)(=O)c1ccc2nc[nH]c2c1)c1cn(C)c2ccccc12` (stereo not drawn) [Compound 6, N-(2-(dimethylamino)-2-(1-methyl-1H-indol-3-yl)ethyl)-1H-benzo[d]imidazole-6-sulfonamide], the inhibition at 25 µM is 19.5%, the inhibition at 100 µM was -38% and the inhibition at 400 µM amounted to 18.8%.
Turning to `CN(Cc1cncs1)[C@H](CNS(=O)(=O)c1ccc2cc[nH]c2c1)c1cn(C)c2ccccc12` [Compound 86, (S)-N-(2-(methyl(thiazol-5-ylmethyl)amino)-2-(1-methyl-1H-indol-3-yl)ethyl)-1H-indole-6-sulfonamide], the inhibition at 25 µM was found to be 80% and the inhibition at 100 µM amounted to 94.1%.
The IC50 is the midpoint of a concentration-inhibition curve. With `Cn1cc(C(CNS(=O)(=O)c2ccc3cc[nH]c3c2)NCc2ccccc2)c2ccccc21` (stereo not drawn) [Compound 50, N-(2-(benzylamino)-2-(1-methyl-1H-indol-3-yl)ethyl)-1H-indole-6-sulfonamide], the inhibition at 25 µM was 95%, the inhibition at 100 µM came to 94.1% and the IC50 is at most 10 µM.
`CN(C)C(CNS(=O)(=O)c1ccc2cc[nH]c2c1)c1cccc2ncccc12` (stereo not drawn) [Compound 17, N-(2-(dimethylamino)-2-(quinolin-5-yl)ethyl)-1H-indole-6-sulfonamide]: the inhibition at 25 µM is -10.7%, the inhibition at 100 µM is -13% and the inhibition at 400 µM amounted to 63.5%.
For `Cn1cc([C@H](CNS(=O)(=O)c2ccc3cc[nH]c3c2)N2CCC2)c2ccccc21` [Compound 102, (R)-N-(2-(azetidin-1-yl)-2-(1-methyl-1H-indol-3-yl)ethyl)-1H-indole-6-sulfonamide], the inhibition at 25 µM is 94% and the inhibition at 100 µM was 94.3%.
With `C[C@H]1CCCN1[C@H](CNS(=O)(=O)c1ccc2cc[nH]c2c1)c1cn(C)c2ccccc12` [Compound 64, N-((S)-2-(1-methyl-1H-indol-3-yl)-2-((S)-2-methylpyrrolidin-1-yl)ethyl)-1H-indole-6-sulfonamide], the inhibition at 25 µM came out at 9% and the inhibition at 100 µM turned out to be 95.4%.
On the same counts, the results for `Cn1cc([C@H](CNS(=O)(=O)c2ccc3cc[nH]c3c2)N2CC[C@@H](c3ccccc3)C2)c2ccccc21` [Compound 59, N-((R)-2-(1-methyl-1H-indol-3-yl)-2-((S)-3-phenylpyrrolidin-1-yl)ethyl)-1H-indole-6-sulfonamide] are 2% and 49.8%.
Take `CN(C)C(CNS(=O)(=O)c1ccc2cc[nH]c2c1)c1c[nH]c2ccccc12` (stereo not drawn) [Compound 22, N-(2-(dimethylamino)-2-(1H-indol-3-yl)ethyl)-1H-indole-6-sulfonamide]: the inhibition at 25 µM turned out to be 57%, the inhibition at 100 µM is 99% and the inhibition at 400 µM amounted to 95.9%.
For the molecule `CN(C)C(CNS(=O)(=O)c1ccc2cc[nH]c2c1)c1ccc2cc[nH]c2n1` (stereo not drawn) [Compound 15, N-(2-(dimethylamino)-2-(1H-pyrrolo[2,3-b]pyridin-6-yl)ethyl)-1H-indole-6-sulfonamide], the inhibition at 25 µM came to 50%, the inhibition at 100 µM was determined as 85.8% and the inhibition at 400 µM worked out at 67.6%.
Regarding `Cn1nc([C@H](CNS(=O)(=O)c2ccc3cc[nH]c3c2)N2CCCC2)c2ccccc21` [Compound 90, (S)-N-(2-(1-methyl-1H-indazol-3-yl)-2-(pyrrolidin-1-yl)ethyl)-1H-indole-6-sulfonamide], the inhibition at 25 µM was -15% and the inhibition at 100 µM came to 65.6%.
For `CN(C)C(CNS(=O)(=O)c1ccc2cc[nH]c2c1)c1cn(CC2COC2)c2ccccc12` (stereo not drawn) [Compound 70, N-(2-(dimethylamino)-2-(1-(oxetan-3-ylmethyl)-1H-indol-3-yl)ethyl)-1H-indole-6-sulfonamide], the inhibition at 25 µM turned out to be 76% and the inhibition at 100 µM amounted to 99.6%.
Turning to `CN(C)C(CNS(=O)(=O)c1ccc2cc[nH]c2c1)c1cn(C)c2ccc(Cl)cc12` (stereo not drawn) [Compound 42, N-(2-(5-chloro-1-methyl-1H-indol-3-yl)-2-(dimethylamino)ethyl)-1H-indole-6-sulfonamide], the inhibition at 25 µM amounted to 91%, the inhibition at 100 µM turned out to be 96.2% and the IC50 is at most 10 µM.
With `Cn1cc([C@@H](CNS(=O)(=O)c2ccc3cc[nH]c3c2)N2CCC2)c2ccccc21` [Compound 101, (S)-N-(2-(azetidin-1-yl)-2-(1-methyl-1H-indol-3-yl)ethyl)-1H-indole-6-sulfonamide], the inhibition at 25 µM came to 63% and the inhibition at 100 µM came out at 97.6%.
As for `O=S(=O)(NC[C@@H](c1cnc2ccccn12)N1CCCC1)c1ccc2cc[nH]c2c1` [Compound 79, (S)-N-(2-(imidazo[1,2-a]pyridin-3-yl)-2-(pyrrolidin-1-yl)ethyl)-1H-indole-6-sulfonamide], the inhibition at 25 µM stood at 8% and the inhibition at 100 µM was found to be 98.7%.
Take `Cn1cc(C(CNS(=O)(=O)c2ccc3cc[nH]c3c2)N2C[C@H]3COC[C@H]3C2)c2ccccc21` (stereo in doubt) [Compound 31, N-(2-(1-methyl-1H-indol-3-yl)-2-(trans-tetrahydro-1H-furo[3,4-c]pyrrol-5(3H)-yl)ethyl)-1H-indole-6-sulfonamide]: the inhibition at 25 µM is 23% and the inhibition at 100 µM stood at 70%.
Consider `C[C@H]1CCCN1[C@@H](CNS(=O)(=O)c1ccc2cc[nH]c2c1)c1cn(C)c2ccccc12` [Compound 65, N-((R)-2-(1-methyl-1H-indol-3-yl)-2-((S)-2-methylpyrrolidin-1-yl)ethyl)-1H-indole-6-sulfonamide], for which the inhibition at 25 µM worked out at 93% and the inhibition at 100 µM was determined as 99.7%.
In the case of `CCN(C)C(CNS(=O)(=O)c1ccc2cc[nH]c2c1)c1cn(C)c2ccccc12` (stereo not drawn) [Compound 37, N-(2-(ethyl(methyl)amino)-2-(1-methyl-1H-indol-3-yl)ethyl)-1H-indole-6-sulfonamide], the inhibition at 25 µM was found to be 92.8%, the inhibition at 100 µM turned out to be 99.9% and the IC50 was at most 10 µM.
